# Data from publication PMC7335187, “Super-assembly of ER-phagy receptor Atg40 induces local ER remodeling at contacts with forming autophagosomal membranes” (Nature Communications, 2020).
# Where a SMILES comes first, the peptide text is derived from it.
# Experiments:
# Format in all cases: binding
# [1] = target: GABARAPL1 WT (Homo sapiens, UniProt Q9H0R8); test: ITC of peptides with GABARAPL1; settings: 25 °C, ± fitting error
# Method: (§1) Some of peptides (Supplementary Table 4) and all proteins except Atg40-6His were expressed in E. coli BL21 (DE3). Bacteria were cultured at 37 °C until OD600 became 0.8–1.0 and further cultured at 16 °C with 100 μM IPTG overnight. After centrifugation, the pellets were resuspended with 20 ml PBS with 0.5 mM EDTA and lysed by sonication for 10 min. After centrifugation, the supernatants were incubated with GST-accept resin (Nacalai tesque). After three times wash by PBS, the proteins were eluted with glutathione buffer (10 mM glutathione and 50 mM Tris pH 8.0). The buffer of the eluates was exchanged with PBS by a Bio-Scale Mini BioGel P-6 desalting column (Bio-Rad). After incubation with GST-fused HRV 3 C protease at 4 °C overnight, the samples were subjected to a GST-accept resin column to remove excised GST and the protease. RTN3^245–264-GABARAP was purified by cation-exchange chromatography using CM Sepharose FF column (GE Healthcare) with 500 mM MES pH 6.0 as buffer B and 50 mM MES pH 6.0 and 1 M NaCl as buffer C. The samples were further subjected to size-exclusion chromatography with 20 mM HEPES pH 6.8, 150 mM sodium chloride except for mCherry-Atg8-CC^tetramer (20 mM HEPES pH 6.8, 500 mM sodium chloride) using a Superdex 75 10/300 or Superdex 200 26/60 column. […]
# [2] = target: GABARAPL2 WT (Homo sapiens, UniProt P60520); test: ITC of peptides with GABARAPL2; settings: 25 °C, ± fitting error
# Sequence of GABARAPL2 WT (P60520 whole entry): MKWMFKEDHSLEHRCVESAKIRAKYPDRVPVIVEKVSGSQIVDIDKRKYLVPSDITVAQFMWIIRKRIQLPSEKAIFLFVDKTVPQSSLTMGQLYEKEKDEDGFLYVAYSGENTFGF
# Method: as §1
# [3] = target: LC3A WT (Homo sapiens, UniProt Q9H492); test: ITC of peptides with LC3A; settings: 25 °C, ± fitting error
# Method: (§2) Some of peptides (Supplementary Table 4) and all proteins except Atg40-6His were expressed in E. coli BL21 (DE3). Bacteria were cultured at 37 °C until OD600 became 0.8–1.0 and further cultured at 16 °C with 100 μM IPTG overnight. After centrifugation, the pellets were resuspended with 20 ml PBS with 0.5 mM EDTA and lysed by sonication for 10 min. After centrifugation, the supernatants were incubated with GST-accept resin (Nacalai tesque). After three times wash by PBS, the proteins were eluted with glutathione buffer (10 mM glutathione and 50 mM Tris pH 8.0). The buffer of the eluates was exchanged with PBS by a Bio-Scale Mini BioGel P-6 desalting column (Bio-Rad). After incubation with GST-fused HRV 3 C protease at 4 °C overnight, the samples were subjected to a GST-accept resin column to remove excised GST and the protease. RTN3^245–264-GABARAP was purified by cation-exchange chromatography using CM Sepharose FF column (GE Healthcare) with 500 mM MES pH 6.0 as buffer B and 50 mM MES pH 6.0 and 1 M NaCl as buffer C. The samples were further subjected to size-exclusion chromatography with 20 mM HEPES pH 6.8, 150 mM sodium chloride except for mCherry-Atg8-CC^tetramer (20 mM HEPES pH 6.8, 500 mM sodium chloride) using a Superdex 75 10/300 or Superdex 200 26/60 column. As described in Supplementary Table 4, the Atg40^237–252 M245A and Atg40^237–252 D243A D247A peptides were synthesized by Cosmo Bio, and the FAM134B^453–460 and SEC62^361–368 peptides were synthesized by BEX Co., Ltd. The Atg40^234–252 peptide and its variants were prepared using Liberty Blue peptide synthesizer (CEM Corporation). After dissolving these synthesized peptides in 300 μl water with ~10 μl ammonium hydroxide, they were subjected to size-exclusion chromatography with 20 mM HEPES pH 6.8 containing 150 mM sodium chloride using a Superdex 75 10/300 column.
# Peptides used in ITC are listed in Supplementary Table 4. ITC experiments were performed using Microcal iTC200 calorimeter (Malvern Panalytical), with stirring at 1000 rpm at 25 °C. […]
# [4] = target: LC3B WT (Rattus norvegicus, UniProt Q62625); test: ITC of peptides with LC3B; settings: 25 °C, ± fitting error
# Source text: All plasmids for expression of recombinant proteins and peptides in bacteria were based on a pGEX6P-1 vector (GE Healthcare). Construction of pGEX6P-ScAtg8 (1-116) K26P and pGEX6P-rat LC3B (1-120) was previously described[35],[47]. All mutations were generated by PCR-based mutagenesis. The genes were amplified by PCR and inserted downstream of the HRV 3C protease recognition site by NEBuilder HiFi DNA Assembly Master Mix (New England Biolabs) except for that encoding human GABARAP (1-116), which was inserted using restriction enzymes for the NdeI and BamHI sites. Plasmids for expression of fusion proteins for crystallization were constructed by inserting the genes encoding Atg40^237–252, human FAM134B^450–468, human SEC62^361–376 with the T367D mutation, and human RTN3^245–264 isoform e into upstream of the sequence encoding Atg8 K26P of pGEX6P-Atg8 (the K26P mutation was introduced for stabilizing Atg8) or upstream of the sequence encoding GABARAP of pGEX6P-GABARAP (with the F3S V4T mutations for enhancing crystallization). For phase-separation experiments, the mCherry and BNDL1[25],[26] sequences were inserted into upstream and downstream of the ATG8 gene in pGEX6P-Atg8 K26P, respectively. pGEX-SNAP-40C was constructed by the removal of the HRV 3C protease recognition site and the insertion of the SNAP sequence from pSNAP-tag(T7) vector (New England Biolabs) with a linker (Gly–Gly–Gly–Ser–Gly–Gly–Gly) and Atg40^194–256 following a linker (Ser–Ala–Ser–Ser) to upstream and downstream of GST in pGEX6P-1 vector, respectively. In the construction of plasmids for peptide production, a Tyr residue was attached to their C termini for enabling the quantification by absorbance at 280 nm (Supplementary Table 4).
# Some of peptides (Supplementary Table 4) and all proteins except Atg40-6His were expressed in E. coli BL21 (DE3). Bacteria were cultured at 37 °C until OD600 became 0.8–1.0 and further cultured at 16 °C with 100 μM IPTG overnight. After centrifugation, the pellets were resuspended with 20 ml PBS with 0.5 mM EDTA and lysed by sonication for 10 min. […]
# [5] = target: LC3C WT (Homo sapiens, UniProt Q9BXW4); test: ITC of peptides with LC3C; settings: 25 °C, ± fitting error
# Sequence of LC3C WT (Q9BXW4 whole entry): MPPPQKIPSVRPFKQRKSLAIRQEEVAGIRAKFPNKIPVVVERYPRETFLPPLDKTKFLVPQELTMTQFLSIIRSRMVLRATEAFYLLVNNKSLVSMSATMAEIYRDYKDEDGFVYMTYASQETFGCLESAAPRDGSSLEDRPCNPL
# Method: as §2
# Peptides used in ITC are listed in Supplementary Table 4. ITC experiments were performed using Microcal iTC200 calorimeter (Malvern Panalytical), with stirring at 1000 rpm at 25 °C. Atg40, FAM134B, SEC62, and RTN3 peptides were prepared as injection samples from the syringe. Concentrations of FAM134B, SEC62, and RTN3 peptides were 0.5 mM, whereas those of Atg40^234–252 and Atg40^237–252 peptides were 2.0 and 1.8 mM, respectively. In total, 200 μl Atg8, LC3A, LC3B, LC3C, GABARAP, GABARAPL1, and GABARAPL2 with 10 times lower concentration than the syringe samples were filled in the cell. As an exception, 1.8 mM Atg8 was filled in the cell when 1.8 mM Atg40^237–252 D243A D247A was in a syringe. The titration involved 18 injections of 2 μl of the syringe sample at intervals of 120 s into a cell after one injection of 0.4 μl of syringe sample. […]
# [6] = target: Atg8 (Saccharomyces cerevisiae, UniProt P38182, K26P); test: biochemical
# Sequence of Atg8 (P38182 1-116 K26P): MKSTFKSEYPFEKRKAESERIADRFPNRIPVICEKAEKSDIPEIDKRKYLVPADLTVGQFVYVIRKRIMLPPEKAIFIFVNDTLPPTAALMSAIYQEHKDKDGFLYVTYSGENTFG
# Method: ITC experiments were performed using Microcal iTC200 calorimeter (Malvern Panalytical), with stirring at 1000 rpm at 25 °C. Atg40, FAM134B, SEC62, and RTN3 peptides were prepared as injection samples from the syringe. […] In total, 200 μl Atg8, LC3A, LC3B, LC3C, GABARAP, GABARAPL1, and GABARAPL2 with 10 times lower concentration than the syringe samples were filled in the cell. […] The titration involved 18 injections of 2 μl of the syringe sample at intervals of 120 s into a cell after one injection of 0.4 μl of syringe sample. Data sets obtained from the titration of the same syringe sample to the cell filled with buffer were used as reference data for subtraction of heat of dilution. MicroCal Origin 7.0 software was used for data analysis. Thermal measurement of the first injection of the syringe samples was removed from the analysis.
# Sequence of GABARAPL1 WT (Q9H0R8 whole entry, the tested form may be a part): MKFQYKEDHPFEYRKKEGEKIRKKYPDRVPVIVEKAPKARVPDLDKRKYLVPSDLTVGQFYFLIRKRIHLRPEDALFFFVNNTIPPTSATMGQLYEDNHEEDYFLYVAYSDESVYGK
smiles,measurement,setting,value
CC[C@H](C)[C@H](NC(=O)[C@H](CCSC)NC(=O)[C@H](CCC(=O)O)NC(=O)[C@H](Cc1ccccc1)NC(=O)[C@H](CC(=O)O)NC(=O)[C@H](CC(N)=O)NC(=O)CNC(=O)[C@H](CC(N)=O)NC(=O)CNC(=O)[C@H](CO)NC(=O)[C@H](CO)NC(=O)[C@H](Cc1c[nH]cn1)NC(=O)[C@@H]1CCCN1C(=O)CN)C(=O)N[C@H](C(=O)N[C@@H](CCCCN)C(=O)N[C@@H](CCC(=O)O)C(=O)N[C@@H](CCC(=O)O)C(=O)N[C@@H](CC(C)C)C(=O)N[C@@H](CCC(=O)O)C(=O)N[C@@H](CCC(N)=O)C(=O)N[C@@H](CCC(N)=O)C(=O)N[C@H](C(=O)N[C@@H](CC(=O)O)C(=O)N[C@@H](Cc1ccc(O)cc1)C(=O)O)[C@@H](C)O)[C@@H](C)O [SEC62^355-376 WT] (H-GPHSSGNGNDFEMITKEELEQQTDY-OH),"N (site), stoichiometry of binding",[1]; GABARAPL1 WT in cell,0.83 ± 0.01
same,"N (site), stoichiometry of binding","[2]; GABARAPL2 WT in cell, N fixed to 1.0 when fitting not convergent",0.78 ± 0.01
same,"N (site), stoichiometry of binding",[3]; LC3A WT in cell,0.78 ± 0.01
same,"N (site), stoichiometry of binding","[4]; LC3B WT in cell, N fixed to 1.0 when fitting not convergent",0.74 ± 0.01
same,"N (site), stoichiometry of binding","[5]; LC3C WT in cell, N fixed to 1.0 when fitting not convergent",0.46 ± 0.02
CC[C@H](C)[C@H](NC(=O)[C@H](CCC(N)=O)NC(=O)[C@H](CC(=O)O)NC(=O)[C@H](CC(C)C)NC(=O)[C@H](CCC(=O)O)NC(=O)[C@H](CO)NC(=O)[C@H](CCC(N)=O)NC(=O)[C@H](CC(=O)O)NC(=O)[C@H](CC(C)C)NC(=O)[C@H](CC(C)C)NC(=O)[C@H](CCC(=O)O)NC(=O)[C@H](Cc1ccccc1)NC(=O)[C@H](CC(=O)O)NC(=O)[C@H](CC(=O)O)NC(=O)CNC(=O)[C@H](CCC(=O)O)NC(=O)[C@H](CCC(=O)O)NC(=O)[C@@H](NC(=O)[C@H](CC(=O)O)NC(=O)[C@@H](NC(=O)[C@H](CC(=O)O)NC(=O)[C@H](CCC(=O)O)NC(=O)[C@H](CCC(=O)O)NC(=O)[C@@H]1CCCN1C(=O)CN)[C@@H](C)O)[C@@H](C)O)C(=O)N[C@@H](CCC(=O)O)C(=O)N[C@@H](CO)C(=O)N[C@@H](CCC(=O)O)C(=O)N[C@@H](CC(C)C)C(=O)N[C@@H](Cc1ccc(O)cc1)C(=O)O [FAM134B^444-470 WT],Kd,"[1]; 0.5 mM peptide in syringe, GABARAPL1 WT in cell 10 times lower, single-site model",0.12 ± 0.04 µM
same,Kd,"[2]; 0.5 mM peptide in syringe, GABARAPL2 WT in cell 10 times lower, single-site model",0.3 ± 0.1 µM
same,Kd,"[3]; 0.5 mM peptide in syringe, LC3A WT in cell 10 times lower, single-site model",0.21 ± 0.03 µM
same,Kd,"[4]; 0.5 mM peptide in syringe, LC3B WT in cell 10 times lower, single-site model",0.62 ± 0.16 µM
same,Kd,"[5]; 0.5 mM peptide in syringe, LC3C WT in cell 10 times lower, single-site model, read-out: Kd",1.11 ± 0.35 µM
CC[C@H](C)[C@H](NC(=O)[C@H](CC(=O)O)NC(=O)[C@H](CCC(=O)O)NC(=O)[C@H](CCSC)NC(=O)[C@H](Cc1ccccc1)NC(=O)[C@H](CC(=O)O)NC(=O)[C@H](Cc1ccc(O)cc1)NC(=O)[C@H](CC(=O)O)NC(=O)[C@H](CC(N)=O)NC(=O)[C@@H]1CCCN1C(=O)[C@H](Cc1ccccc1)NC(=O)[C@H](CCC(=O)O)NC(=O)[C@@H]1CCCN1C(=O)CN)C(=O)N[C@@H](CC(C)C)C(=O)N[C@@H](CC(=O)O)C(=O)N[C@@H](CCC(=O)O)C(=O)N[C@H](C(=O)O)[C@@H](C)O [Atg40^237-252 WT] (H-GPEFPNDYDFMEDILDET-OH),Kd,[6],0.57 ± 0.51 µM
same,"N (site), stoichiometry of binding","[6]; ITC, 25 °C, peptide in syringe 2.0 or 1.8 mM, Atg8 in cell 10 times lower, single-site model, ± fitting error",0.90 ± 0.03
